Where a name gives a salt, the structure may show the parent alone.
Tests used:
[1] = target: T1, human alpha2C receptors (Homo sapiens, UniProt P18825); test: Determination of alpha2C antagonistic activity in vitro (FLIPR calcium assay); conditions: for Kb: Alpha 2C Adrenaline Kb, Kb calculated from IC50 with the Cheng-Prusoff equation, adrenaline as agonist, CHO cells, human alpha2C
T1 sequence (P18825 1-462): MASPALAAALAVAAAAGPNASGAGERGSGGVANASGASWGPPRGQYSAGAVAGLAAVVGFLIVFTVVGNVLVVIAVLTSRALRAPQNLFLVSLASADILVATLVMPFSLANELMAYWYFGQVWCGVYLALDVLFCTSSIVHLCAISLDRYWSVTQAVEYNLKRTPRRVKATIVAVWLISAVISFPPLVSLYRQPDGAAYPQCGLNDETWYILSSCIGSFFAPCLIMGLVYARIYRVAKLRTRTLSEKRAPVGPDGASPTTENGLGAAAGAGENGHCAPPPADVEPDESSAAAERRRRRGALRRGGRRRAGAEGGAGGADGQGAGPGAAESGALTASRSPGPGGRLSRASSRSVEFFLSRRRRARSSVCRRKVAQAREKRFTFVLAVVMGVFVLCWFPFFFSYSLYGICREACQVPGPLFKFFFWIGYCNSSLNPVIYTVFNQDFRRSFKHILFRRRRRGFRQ
Method: Experiment 1: Determination of alpha2A and alpha2C Antagonistic Activity In Vitro
The growth medium was removed and the cells were incubated with the test compounds and the FLIPR Calcium 6 Assay reagent (Molecular Devices, CA, USA) for 2 h at 37° C. in dark. The test compounds (concentrations in cells 100 pM-10 μM) were dissolved in Probenecid-Ringer consisting of 150 mM NaCl, 3 mM KCl, 1.2 mM MgCl2, 1 mM CaCl2, 5 mM glucose, 20 mM HEPES and 2.5 mM probenecid (pH 7.4 adjusted with 1.0 M NaOH). […] All experiments were performed at 37° C. For agonism measurements the test compounds dissolved in Probenecid-Ringer were applied by FLIPR Tetra at 15 s time point. In order to determine antagonism, the cells were stimulated either with 100 nM adrenaline or noradrenaline and the test compounds were added to the cells 2 h before the experiment with the FLIPR Calcium 6 Assay reagent. […] Typically, there were four replicates at each concentration and six different dose levels. […] The minimum fluorescence value subtracted from the maximum value for each well was used in the calculations. ScreenWorks version 4.0 software was used for analyzing the results. Fitting of the antagonist dose-response results was performed with the free Hill equation and the IC50 values were fitted with IDBS XE software using model 200: y=(A+(B/(1+((x/C)̂D)))), where A is the curve maximum, B the curve minimum and C equals the EC50 value. D is slope factor (Hill). Kb was calculated with the Cheng-Prusoff equation Kb=A/((B/C)+1), where A is the IC50 of antagonist, B the concentration of agonist and C the EC50 of the agonist.

[2] = target: T2, human alpha2A receptors (Homo sapiens, UniProt P08913); test: cell-based
T2 sequence (P08913 1-465): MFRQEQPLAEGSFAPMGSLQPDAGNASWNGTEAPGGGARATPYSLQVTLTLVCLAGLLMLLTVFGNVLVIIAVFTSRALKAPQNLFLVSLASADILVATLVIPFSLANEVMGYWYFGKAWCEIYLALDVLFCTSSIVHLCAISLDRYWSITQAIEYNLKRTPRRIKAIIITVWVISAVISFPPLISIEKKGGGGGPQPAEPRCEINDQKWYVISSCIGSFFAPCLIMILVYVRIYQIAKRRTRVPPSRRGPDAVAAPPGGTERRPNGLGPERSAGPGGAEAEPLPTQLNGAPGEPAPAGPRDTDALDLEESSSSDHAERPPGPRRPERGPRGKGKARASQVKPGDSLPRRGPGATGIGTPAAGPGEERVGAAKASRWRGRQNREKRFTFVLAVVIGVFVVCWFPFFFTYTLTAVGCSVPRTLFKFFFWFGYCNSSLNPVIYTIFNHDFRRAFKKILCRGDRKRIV

IC50 [1] [nM]	Kb [1] [nM]	IC50 [2] [nM]	Kb [2] [nM]	SMILES
< 0.01	< 0.001	> 10000	> 449	Cc1ccc2c(c1)CN([C@H]1CCCN(C[C@H]3COc4ccccc4O3)C1)C2=O [example 59, 2-((S)-1-(((S)-2,3-Dihydrobenzo[b][1,4]dioxin-2-yl)methyl)piperidin-3-yl)-5-methylisoindolin-1-one formate]
3.27	0.33	> 10000	> 449	CCN1CC(=O)N([C@H]2CCCN(C[C@H]3COc4ccccc4O3)C2)C1=O [example 105, 3-((S)-1-(((S)-2,3-Dihydrobenzo[b][1,4]dioxin-2-yl)methyl)-piperidin-3-yl)-1-ethylimidazolidine-2,4-dione]
< 0.01	< 0.001	807	36	C[C@@H](c1ccccc1)N1C(=O)C(=O)N([C@H]2CCCN(C[C@H]3COc4ccccc4O3)C2)C1=O [compound 133, 1-((S)-1-(((S)-2,3-Dihydrobenzo[b][1,4]dioxin-2-yl)methyl)-piperidin-3-yl)-3-((S)-1-phenylethyl)imidazolidine-2,4,5-trione]
26.4	2.66	> 10000	> 449	O=C1CN(C2CC(F)(F)C2)C(=O)N1[C@H]1CCCN(C[C@H]2COc3ccccc3O2)C1 [example 121, 1-(3,3-Difluorocyclobutyl)-3-((S)-1-(((S)-2,3-dihydrobenzo[b][1,4]dioxin-2-yl)methyl)piperidin-3-yl)imidazolidine-2,4-dione]
0.15	0.016	> 10000	> 449	Cc1nc2cncnc2n1[C@H]1CCCN(C[C@H]2COc3ccccc3O2)C1 [example 160, 9-((S)-1-(((S)-2,3-Dihydrobenzo[b][1,4]dioxin-2-yl)methyl)piperidin-3-yl)-8-methyl-9H-purine]
17.5	1.76	> 10000	> 449	O=C1CN(C2CC2)C(=O)N1[C@H]1CCCN(C[C@H]2COc3ccccc3O2)C1 [example 119, 1-Cyclopropyl-3-((S)-1-(((S)-2,3-dihydrobenzo[b][1,4]dioxin-2-yl)methyl)piperidin-3-yl)imidazolidine-2,4-dione]
444	44.7	> 10000	> 449	CN(C)CCN1C(=O)C(=O)N([C@H]2CCCN(C[C@H]3COc4ccccc4O3)C2)C1=O [example 135, 1-((S)-1-(((S)-2,3-Dihydrobenzo[b][1,4]dioxin-2-yl)methyl)-piperidin-3-yl)-3-(2-(dimethylamino)ethyl)imidazolidine-2,4,5-trione]
89.7	9.03	> 10000	> 449	Cn1ncc2c1C(=O)N([C@H]1CCCN(C[C@H]3COc4ccccc4O3)C1)C2 [example 24, 5-((S)-1-(((S)-2,3-Dihydrobenzo[b][1,4]dioxin-2-yl)methyl)piperidin-3-yl)-1-methyl-4,5-dihydropyrrolo[3,4-c]pyrazol-6(1H)-one]
9.26	0.93	> 10000	> 449	CC1CCN([C@H]2CCCN(C[C@H]3COc4ccccc4O3)C2)C1=O (single isomer, unassigned; diastereomer 1) [example 98]
0.012	0.001	3580	161	Cc1nc2cccnc2n1[C@H]1CCCN(C[C@H]2COc3ccccc3O2)C1 [example 156, 3-((S)-1-(((S)-2,3-Dihydrobenzo[b][1,4]dioxin-2-yl)methyl)-piperidin-3-yl)-2-methyl-3H-imidazo[4,5-b]pyridine]
19.4	1.95	535	24	O=S1(=O)Cc2ccccc2N1[C@H]1CCCN(C[C@H]2COc3ccccc3O2)C1 [example 25, 1-((S)-1-(((S)-2,3-Dihydrobenzo[b][1,4]dioxin-2-yl)methyl)piperidin-3-yl)-1,3-dihydrobenzo[c]isothiazole 2,2-dioxide]
69.8	7.03	288	13	CN(C)Cc1nc2ccc(Cl)cc2n1[C@H]1CCCN(C[C@H]2COc3ccccc3O2)C1 [example 152, 1-(6-Chloro-1-((S)-1-(((S)-2,3-dihydrobenzo[b][1,4]dioxin-2-yl)methyl)piperidin-3-yl)-1H-benzo[d]imidazol-2-yl)-N,N-dimethylmethanamine]
1.54	0.15	> 10000	> 449	O=C1c2cccc(F)c2CN1[C@H]1CCCN(C[C@H]2COc3ccccc3O2)C1 [example 57, 2-((S)-1-(((S)-2,3-Dihydrobenzo[b][1,4]dioxin-2-yl)methyl)piperidin-3-yl)-4-fluoroisoindolin-1-one hydrochloride]
43.5	4.38	> 10000	> 449	O=C1c2cccc(Cl)c2C(=O)N1[C@H]1CCCN(C[C@H]2COc3ccccc3O2)C1 [example 64, 4-Chloro-2-((S)-1-(((S)-2,3-dihydrobenzo[b][1,4]dioxin-2-yl)methyl)piperidin-3-yl)isoindoline-1,3-dione hydrochloride]
0.11	0.01	1380	62	O=C1NC2(CC2)C(=O)N1[C@H]1CCCN(C[C@H]2COc3ccccc3O2)C1 [example 122, 6-((S)-1-(((S)-2,3-Dihydrobenzo[b][1,4]dioxin-2-yl)methyl)-piperidin-3-yl)-4,6-diazaspiro[2.4]heptane-5,7-dione]
< 0.1	< 0.01	> 10000	> 449	O=c1[nH]c2ccc(F)cc2n1[C@H]1CCCN(C[C@H]2COc3ccccc3O2)C1 [example 86, 1-((S)-1-(((S)-2,3-Dihydrobenzo[b][1,4]dioxin-2-yl)methyl)piperidin-3-yl)-6-fluoro-1H-benzo[d]imidazol-2(3H)-one]
29.9	3.01	> 10000	> 449	O=C1N(c2ccccc2)CCN1[C@H]1CCCN(C[C@H]2COc3ccccc3O2)C1 [example 48, 1-((S)-1-(((S)-2,3-Dihydrobenzo[b][1,4]dioxin-2-yl)methyl)piperidin-3-yl)-3-phenylimidazolidin-2-one]
18	1.81	> 10000	> 449	O=C1c2cncnc2CN1[C@H]1CCCN(C[C@H]2COc3ccccc3O2)C1 [example 23, 6-((S)-1-(((S)-2,3-Dihydrobenzo[b][1,4]dioxin-2-yl)methyl)piperidin-3-yl)-6,7-dihydro-5H-pyrrolo[3,4-d]pyrimidin-5-one]
20.8	2.09	> 10000	> 449	Cc1nc2c(F)cc(F)cc2n1[C@H]1CCCN(C[C@H]2COc3ccccc3O2)C1 [example 27, 1-((S)-1-(((S)-2,3-Dihydrobenzo[b][1,4]dioxin-2-yl)methyl)piperidin-3-yl)-4,6-difluoro-2-methyl-1H-benzo[d]imidazole]
1770	178	> 10000	> 449	O=C1c2ccncc2CN1[C@H]1CCCN(C[C@H]2COc3ccccc3O2)C1 [example 76, 2-((S)-1-(((S)-2,3-Dihydrobenzo[b][1,4]dioxin-2-yl)methyl)piperidin-3-yl)-2,3-dihydro-1H-pyrrolo[3,4-c]pyridin-1-one]
> 10000	> 1010	> 10000	> 449	O=C1C(c2ccccc2)CCN1[C@H]1CCCN(C[C@H]2COc3ccccc3O2)C1 (stereo partly drawn) [example 31, 1-((S)-1-(((S)-2,3-Dihydrobenzo[b][1,4]dioxin-2-yl)methyl)piperidin-3-yl)-3-phenylpyrrolidin-2-one]
3220	324	> 10000	> 449	O=c1n(-c2ccccc2)c2ccccc2n1[C@H]1CCCN(C[C@H]2COc3ccccc3O2)C1 [example 149, 1-((S)-1-(((S)-2,3-Dihydrobenzo[b][1,4]dioxin-2-yl)methyl)piperidin-3-yl)-3-phenyl-1H-benzo[d]imidazol-2(3H)-one]

SMILES	IC50 [1] [nM]	Kb [1] [nM]	IC50 [2] [nM]	Kb [2] [nM]
CCN1C(=O)CC(=O)N([C@H]2CCCN(C[C@H]3COc4ccccc4O3)C2)C1=O [example 96, 1-((S)-1-(((S)-2,3-Dihydrobenzo[b][1,4]dioxin-2-yl)methyl)-piperidin-3-yl)-3-ethylpyrimidine-2,4,6(1H,3H,5H)-trione]	15.1	1.52	> 10000	> 449

Reference: patent US20190152992A1, “BENZODIOXANE DERIVATIVES AND THEIR PHARMACEUTICAL USE” (Orion Corporation, priority 2016, published 2019)
